Data on 1 molecule can be found in PMC11912471 (Journal of Medicinal Chemistry, 2025).

Structures are written as SMILES.

For data set [1], the target named is T1, purified human ODC enzyme (Homo sapiens, UniProt P11926).
T1 construct: His6 (C); made in house; host or cells: E. coli BL21(DE3)
T1 sequence (P11926 1-461): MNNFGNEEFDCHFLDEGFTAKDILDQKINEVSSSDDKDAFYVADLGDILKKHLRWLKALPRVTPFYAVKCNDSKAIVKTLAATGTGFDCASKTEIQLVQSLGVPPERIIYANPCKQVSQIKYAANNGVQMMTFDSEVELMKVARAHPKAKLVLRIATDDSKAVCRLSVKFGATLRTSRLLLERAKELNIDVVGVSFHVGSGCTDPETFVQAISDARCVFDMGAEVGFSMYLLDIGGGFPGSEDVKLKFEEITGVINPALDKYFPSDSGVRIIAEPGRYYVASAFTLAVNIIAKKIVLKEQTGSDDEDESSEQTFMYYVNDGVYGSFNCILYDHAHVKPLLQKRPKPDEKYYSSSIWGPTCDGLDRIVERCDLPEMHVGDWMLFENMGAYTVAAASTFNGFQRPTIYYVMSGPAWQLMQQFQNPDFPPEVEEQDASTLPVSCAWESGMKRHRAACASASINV
Nature of the data set: In vitro ODC enzyme activity assay. The note with it: read-out: ODC biochemical inhibition % (50 μM). The class given is biochemical. How it is done:
(§1) Our strategy to identify novel ODC inhibitors was to first screen new analogs for ODC inhibition at 50 μM using our in vitro enzyme activity assay and purified human ODC (Table 1). Those showing significant inhibition were then titrated to provide an ODC IC50 followed by cell-based screening against both cancer (Kelly neuroblastoma) and noncancerous (neonatal fibroblasts) cell lines. For the cancer cell line, higher cytotoxicity was desired and for the noncancerous cell line counter screen, lower cytotoxicity was desired.
In vitro ODC activity was measured using 100 ng of purified human ODC enzyme, as we previously described.[53],[99] ODC was incubated with increasing concentrations of inhibitors for 30 min at room temperature in a buffer containing 25 mM Tris and 0.1 mM EDTA. […] In the cell-based ODC activity assay, Kelly neuroblastoma cells that were treated with 500 μM inhibitors were harvested in a buffer containing 25 mM Tris HCl, 0.1 mM EDTA, and 2.5 mM DTT. […] For both the in vitro and cell-based assay, the microcentrifuge tubes were then placed into scintillation vials containing a piece of filter paper saturated with 200 μL of 0.1 M NaOH to capture the release of radiolabeled carbon dioxide. The samples were incubated in a 37 °C incubator while shaking for 30 min (in vitro) or 2 h (cell-based). The enzymatic reaction was stopped by adding 250 μL of 5 M sulfuric acid to each sample and incubating at 37 °C while shaking for 30 min. The microcentrifuge tubes were removed from the scintillation vials, and 5 mL of scintillation fluid was added. Disintegrations per minute (DPM) of each sample was measured using a TriCarb liquid scintillation counter (PerkinElmer). The specific ODC activity is expressed as nmol CO2/min/mg protein (in vitro) or pmol CO2/min/mg protein (cell-based). The individual ODC inhibitor IC50 values were determined using Graphpad Prism 8.

Data set [2] deals with Kelly neuroblastoma cells. Nature of the data set: Sulforhodamine B (SRB) cytotoxicity assay, Kelly neuroblastoma cells. Format: cell-based. How it is done:
as §1
(§2) Normal primary human neonatal fibroblast cells (ATCC) were maintained in DMEM medium (Gibco) supplemented with 10% heat-inactivated fetal bovine serum (Hyclone), penicillin (100 IU/mL), and streptomycin (100 μg/mL), nonessential amino acids (0.1 mM) and sodium pyruvate (1 mM). Kelly neuroblastoma cells (Sigma-Aldrich) were maintained in RPMI medium (Corning) supplemented with 10% heat-inactivated fetal bovine serum (Hyclone), penicillin (100 IU/mL), and streptomycin (100 μg/mL). Cell lines were routinely monitored for mycoplasma contamination using the MycoAlert PLUS Mycoplasma Detection Kit (Lonza).
(§3) The colorimetric sulforhodamine B (SRB) assay was used to measure cytotoxicity following treatment with ODC inhibitors. Briefly, Kelly neuroblastoma cells and normal primary human neonatal fibroblast cells were plated in transparent flat 96-well plates and allowed to attach overnight. Cells were treated with control or 500 μM ODC inhibitor for 72 h. Cells were then fixed with 10% TCA at 4 °C for 1 h, washed with deionized water, and dried at room temperature. Cells were stained with 100 μL of 0.4% SRB in 1% acetic acid for 20 min at room temperature, rinsed five times with 1% acetic acid and allowed to dry at room temperature. One hundred μL of 10 mM Tris–HCl pH 7.0 was added to each well, shaken for 10 min at room temperature and absorbance was read at 540 nm. Absorbance values were normalized relative to control readings and converted to percentage by multiplying by one hundred. The percent cytotoxicity was then determined by subtracting the relative percentage of the ODC inhibitor treated readings from the control which is 100%.

Data set [3] is described as follows: Sulforhodamine B (SRB) cytotoxicity assay, neonatal fibroblasts. Format: cell-based, human. Conditions: human, normal primary neonatal fibroblast cells; 72 hrs @500 µM; supplement csv. How it is done: as §1, §2, §3
The subject of data set [4] is normal primary human neonatal fibroblast cells. The data set is described as above. The class given is cell-based. Conditions: 500 μM. How it is done: as §1, §2, §3
Data set [5] relates to polyamine levels in Kelly neuroblastoma cells. The data set is described as follows: Polyamine analysis (HPLC of dansylated polyamines). The class given is cell-based. Conditions: 500 μM inhibitor. How it is done:
Polyamines from Kelly neuroblastoma cells treated with 500 μM inhibitors were isolated, dansylated, and analyzed by HPLC. Briefly, polyamines were extracted and protonated in perchloric acid/sodium chloride buffer. To 100 μL of sample, 4.5 nmol of 1,7 diaminoheptane internal standard and 200 μL of 1 M sodium carbonate was added prior to dansylation with 400 μL of 5 mg/mL dansyl chloride (Sigma-Aldrich) for 60 min at 65 °C. One hundred μL of 1 M proline was then added to each reaction and incubated for 20 min at 65 °C. Polyamines were extracted from the mixture using methylene chloride. The methylene chloride was allowed to evaporate, the samples were resuspended in methanol and run through a C18 cleanup column. Samples were then analyzed using a Thermo Scientific/Dionex Ultimate 3000 HPLC, using a Syncronis C18 column (250 × 4.6 mm, […] pore size), and containing a fluorescence detector. The dansylated polyamine peaks were visualized by excitation at 340 nm and emission at 515 nm. The buffers used for elution of the polyamines were as follows: buffer A: 10 mM sodium heptanesulfonate/10% acetontrile at pH 3.4. Buffer B: 100% acetonitrile. The flow rate was 0.7 mL per minute. The column was equilibrated with 55% buffer B/45% buffer A prior to injection of the sample. Upon injection of the sample, elution of polyamines occurs in an isocratic solution of 55% buffer B/45% buffer A for 28 min. The solution was then slowly ramped to 95% buffer B/5% buffer A for 20 min. This gradient was held for 27 min to elute the spermine peak. The solution was then quickly dropped back to 55% buffer B/45% buffer A to re-equilibrate the column prior to the next sample being injected. Using the relative molar response derived from N-dansylated PA and 1,7 diaminoheptane standards, the amount of N-dansylated polyamines was calculated and normalized to total sample protein.

For data set [6] the following is noted: no reference printed for this property; cited from earlier work.
The conditions of data set [7]: cited from earlier work.
Details of data set [8]: method as in PMID 11004451. The note with it: due to an amino acid transporter; cited from earlier work.

Consider `NCCC[C@](N)(C(=O)O)C(F)F` [DFMO, α-difluoromethylornithine], for which the inhibition at 50 µM in data set [1] was 47%. Besides, in data set [2] (72 h, 500 μM), the “activity against Kelly neuroblastoma cells (in words)” value is reported as “relatively moderate cytotoxic activity”. Also, the “Cell cytotoxicity (72 hr @ 500 μM) Kelly Neuroblastoma” value in data set [2] (72 hr, 500 μM, percent cytotoxicity) stood at 26±9%. In addition, in data set [2] (Kelly, 72 hrs @500 µM, supplement csv, read-out: Kelly Neuroblasoma Cells (72 hrs @500 µM) %cytotoxicity), the cytotoxicity at 500 µM was 26%. Also, the cytotoxicity at 72 h, 500 µM in data set [3] was 41%. The “cytotoxic activity against neonatal fibroblasts (in words)” value in data set [4] (72 h) is “greater cytotoxic activity”. Further, the “Cell cytotoxicity (72 hr @ 500 μM) Neonatal Fibroblasts” value in data set [4] (72 hr, percent cytotoxicity) is 41±12%. Moreover, in data set [5] (Control = 2.57+0.47), the “Kelly Treated Neuroblastoma Cells (Total Spm)” value is 3.52+0.35. In data set [5] (Control = 8.52+1.63), the “Kelly Treated Neuroblastoma Cells (Spd)” value was 1.99+1.06. Besides, the “Kelly Treated Neuroblastoma Cells (Total Put)” value in data set [5] (Control = 9.71+1.31) was determined as 0. Moreover, the “Kelly Treated Neuroblastoma Cells (Total PA)” value in data set [5] (Control = 20.81 +2.67) is 5.51+1.06. For the same molecule, the “putrescine level (in words)” value in data set [5] (Kelly neuroblastoma cells, Figure 6B) was “undetected”. The “spermidine and spermine levels (in words)” value in data set [5] (Kelly neuroblastoma cells, relative to APA) is “greatest reductions”. Moreover, in data set [6], the “water solubility (in words)” value was “water-soluble”. Moreover, the “clearance (in words)” value in data set [7] was “rapid clearance”. Moreover, the “permeability (in words)” value in data set [8] is recorded as “permeable”.
